This note sets out measurements from ChEMBL document CHEMBL1201862, “PubChem BioAssay data set” (2004).

Among the test systems are 786-0; A549; BT-549; HCC 2998; HL-60; HT-29; Hs-578T; KM12; Malme-3M; OVCAR-3; OVCAR-4; OVCAR-8; RPMI-8226; RXF 393; SF-268; SK-OV-3; SW-620; UACC-62; UO-31; KM-20L2.
Common to all, as to experiment: NCI-60 cell line screen, 48 h

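Interpolation was linear, between the two tested concentrations surrounding the appropriate level; five concentrations were tested over 48 hours in 96-well plates. At the GI50, growth is halved.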 Calls of active or inactive are those of the source. Rule as the data show it: active = GI50 up to about 1.1 µM and inactive = higher.

For `CCOc1ccc(-n2c(=O)c3nn4c(=O)n(-c5ccc(OCC)cc5)c(=O)c4nn3c2=O)cc1`, the GI50 with 786-0 was 70.1 µM (inactive); with A549, > 100 µM (inactive); in the assay with BT-549 it was 64.6 µM (inactive); with HCC 2998 it was > 100 µM (inactive); in the assay with HL-60, > 100 µM (inactive); with HT-29 it was > 100 µM (inactive). In addition, the GI50 with Hs-578T was 28.5 µM (inactive); with KM12, > 100 µM (inactive); in the assay with Malme-3M, > 100 µM (inactive); in the assay with OVCAR-3, > 100 µM (inactive); in the assay with OVCAR-4, > 100 µM (inactive); in the assay with OVCAR-8, > 100 µM (inactive). Besides, the GI50 in the assay with RPMI-8226 is > 100 µM (inactive); with RXF 393 it was 44.6 µM (inactive); in the assay with SF-268 it was > 100 µM (inactive); with SK-OV-3 it was > 100 µM (inactive); with SW-620, > 100 µM (inactive); with UACC-62 it was > 100 µM (inactive). Moreover, the GI50 with UO-31 is > 100 µM (inactive).
As for `COc1ccc(Cc2n[nH]c(Nc3ccc(Br)cc3)nc2=O)cc1OC`, the GI50 with 786-0 was > 100 µM (inactive); in the assay with A549, > 100 µM (inactive); in the assay on BT-549 it was 27 µM (inactive); with HCC 2998 it was > 88.1 µM (inactive); in the assay on HL-60 it was 57 µM (inactive); in the assay with HT-29, > 100 µM (inactive). For the same compound, the GI50 was 35 µM (inactive) in the assay on Hs-578T; 36.6 µM (inactive) in the assay on KM12; 47.2 µM (inactive) with Malme-3M; > 74.3 µM (inactive) in the assay with OVCAR-3; > 100 µM (inactive) in the assay on OVCAR-4; > 100 µM (inactive) in the assay on OVCAR-8. In addition, the GI50 was > 100 µM (inactive) with RPMI-8226; > 100 µM (inactive) in the assay on RXF 393; 88.5 µM (inactive) in the assay on SF-268; > 100 µM (inactive) in the assay with SK-OV-3; > 100 µM (inactive) in the assay with SW-620; 65.8 µM (inactive) in the assay with UACC-62. In addition, in the assay on UO-31, the GI50 is > 76.2 µM (inactive).
As for `COc1ccc2c(c1)Oc1cc(O)ccc1[C@@H]2c1ccccc1C(=O)NC(C)c1ccccc1` (stereo partly specified), the GI50 in the assay on 786-0 is 13.7 µM (inactive); in the assay on A549, 17.7 µM (inactive); in the assay on HCC 2998, 11.9 µM (inactive); in the assay on HL-60, 11.3 µM (inactive); in the assay with HT-29 it was 15.3 µM (inactive); in the assay with KM-20L2, 14.9 µM (inactive). Also, the GI50 in the assay on KM12 was 13.4 µM (inactive); in the assay on Malme-3M, 15 µM (inactive); in the assay with OVCAR-3, 15.9 µM (inactive); in the assay with OVCAR-8, 17.6 µM (inactive); with RPMI-8226, 6.49 µM (inactive); in the assay on RXF 393, 13.1 µM (inactive). Further, the GI50 is 19.1 µM (inactive) in the assay on SF-268; 23.1 µM (inactive) with SK-OV-3; 19 µM (inactive) in the assay on SW-620; 13.6 µM (inactive) in the assay on UACC-62; 13.5 µM (inactive) with UO-31.
Take `COC(=O)/C=C\C(C#N)(C#N)/N=C/c1cccc(OC)c1`: the GI50 is 3.51 µM (inactive) in the assay on 786-0; 17.9 µM (inactive) in the assay with A549; 7.74 µM (inactive) in the assay with BT-549; 16.3 µM (inactive) with HCC 2998; > 100 µM (inactive) in the assay with HL-60; 3.77 µM (inactive) in the assay on HT-29. Moreover, the GI50 with Hs-578T was 18.1 µM (inactive); in the assay on KM12, 16.4 µM (inactive); with Malme-3M it was 1.71 µM (inactive); with OVCAR-3, 11.5 µM (inactive); in the assay with OVCAR-4, 6.67 µM (inactive); with OVCAR-8 it was 3.13 µM (inactive). Further, the GI50 in the assay with RPMI-8226 was 2.71 µM (inactive); in the assay on RXF 393, 3.18 µM (inactive); with SF-268, 17.2 µM (inactive); with SK-OV-3, 25.3 µM (inactive); with SW-620, 2.13 µM (inactive); with UACC-62 it was 15.2 µM (inactive). In addition, the GI50 in the assay on UO-31 was 2.74 µM (inactive).
In the case of `CCOC(=O)C1=C(C)N(NC(N)=O)C2(N)N(NC(N)=O)C(C)=C(C(=O)OCC)C12C#N` (stereo unspecified), the GI50 in the assay with 786-0, with A549, with HCC 2998, in the assay on HT-29, with KM-20L2 and in the assay on KM12 was > 100 µM (inactive) each time. Besides, the GI50 in the assay on Malme-3M, with OVCAR-3, in the assay with OVCAR-4, in the assay with OVCAR-8, with RPMI-8226 and in the assay on SF-268 was > 100 µM (inactive) each time. Further, the GI50 in the assay with SK-OV-3, in the assay with SW-620, in the assay with UACC-62 and in the assay on UO-31 was > 100 µM (inactive) throughout.
Take `[N-]=[N+]=Nc1ccc2c(c1)Sc1ccccc1N2CCCCCl`: the GI50 in the assay with 786-0 is > 100 µM (inactive); in the assay on A549, 35.2 µM (inactive); with BT-549, 41.6 µM (inactive); in the assay on HCC 2998 it was 61.8 µM (inactive); in the assay with HL-60 it was 15.3 µM (inactive); in the assay with HT-29 it was 20.1 µM (inactive). Further, the GI50 with Hs-578T is 35.8 µM (inactive); with KM12 it was 53.5 µM (inactive); in the assay with Malme-3M, 37.1 µM (inactive); in the assay on OVCAR-3, 82.2 µM (inactive); with OVCAR-4, 80.4 µM (inactive); in the assay with OVCAR-8 it was 69.8 µM (inactive). Moreover, the GI50 with RPMI-8226 is 23.3 µM (inactive); in the assay with RXF 393 it was 78.9 µM (inactive); in the assay with SF-268, 41.9 µM (inactive); in the assay with SK-OV-3 it was > 100 µM (inactive); in the assay on SW-620, 88.3 µM (inactive); in the assay with UACC-62, 99.8 µM (inactive). The GI50 with UO-31 was > 100 µM (inactive).
Take `[N-]=[N+]=C(C(=O)OCC#CCOC(=O)C(=[N+]=[N-])S(=O)(=O)c1ccccc1)S(=O)(=O)c1ccccc1`: the GI50 in the assay with 786-0, in the assay on A549, with BT-549, in the assay on HCC 2998, in the assay on HL-60 and in the assay on HT-29 was > 10 µM (inactive) throughout. Moreover, the GI50 in the assay with Hs-578T, in the assay on KM12, in the assay with Malme-3M, in the assay on OVCAR-3, in the assay with OVCAR-4 and in the assay on OVCAR-8 was > 10 µM (inactive) in each case. Further, the GI50 with RPMI-8226, in the assay with RXF 393, with SF-268, with SK-OV-3, in the assay on SW-620 and in the assay with UACC-62 was > 10 µM (inactive) in each case. Besides, the GI50 with UO-31 is 0.2 µM (active).
For the compound `O=[N+]([O-])c1cnn(C2=CNc3ccccc3N=C2)c1`, the GI50 in the assay on 786-0, in the assay on A549, in the assay with HCC 2998, in the assay with HL-60, in the assay on HT-29 and in the assay with KM-20L2 was > 100 µM (inactive) each time. Moreover, the GI50 was > 100 µM (inactive) in the assay with Malme-3M; > 100 µM (inactive) in the assay on OVCAR-3; > 100 µM (inactive) in the assay on OVCAR-8; 46.7 µM (inactive) in the assay on RXF 393; > 100 µM (inactive) in the assay on SF-268; > 100 µM (inactive) in the assay on SK-OV-3. Moreover, the GI50 with UACC-62 and in the assay with UO-31 was > 100 µM (inactive) in each case.
On to `Cc1ccc2c(ccc(/C=C\c3cc(C)c4cccnc4c3O)[n+]2C)c1`, for which the GI50 in the assay with 786-0 is 2.32 µM (inactive); with A549, 8.43 µM (inactive); in the assay on HCC 2998, 1.81 µM (inactive); in the assay with HL-60 it was 0.454 µM (active); in the assay on KM-20L2, 2.84 µM (inactive); with KM12 it was 1.32 µM (inactive). The GI50 with Malme-3M is 8.41 µM (inactive); with OVCAR-3 it was 2.01 µM (inactive); in the assay on OVCAR-4, 14.4 µM (inactive); in the assay with OVCAR-8, 0.912 µM (active); in the assay with RPMI-8226 it was 0.401 µM (active); with SF-268, 9.25 µM (inactive). Also, the figures for the GI50 with SW-620, in the assay with UACC-62 and in the assay on UO-31 were 1.66 µM (inactive), 0.535 µM (active) and 15.7 µM (inactive), respectively.
Take `Cc1ccc2nc(-c3ccc(NC(=O)c4ccc(N)cc4)c(S(=O)(=O)O)c3)sc2c1`: the GI50 with 786-0, in the assay on A549, with BT-549, in the assay on HCC 2998, in the assay with HL-60 and in the assay on HT-29 was > 100 µM (inactive) throughout. The GI50 in the assay with Hs-578T, in the assay with KM12, in the assay with Malme-3M, in the assay with OVCAR-3, in the assay on OVCAR-4 and with OVCAR-8 was > 100 µM (inactive) in each case. Further, the GI50 with RPMI-8226, with RXF 393, with SF-268, with SK-OV-3, in the assay with SW-620 and in the assay on UACC-62 was > 100 µM (inactive) throughout. Further, the GI50 in the assay on UO-31 was > 100 µM (inactive).
As for `COC(=O)[C@@]12C3=NO[C@]1(C(=O)OC)C(O[Si](C)(C)C(C)(C)C)C1OC(C)(C)OC1[C@@H]2[C@@H](OCc1ccccc1)CC3` (stereo partly specified), the GI50 with 786-0 was > 100 µM (inactive); in the assay on A549, > 100 µM (inactive); in the assay on HCC 2998 it was > 100 µM (inactive); with HL-60 it was 3.11 µM (inactive); in the assay with HT-29 it was 33 µM (inactive); in the assay on KM-20L2, > 100 µM (inactive). In addition, the GI50 with KM12 is 7.73 µM (inactive); in the assay with OVCAR-3, 39.7 µM (inactive); with OVCAR-4, 23.9 µM (inactive); in the assay on OVCAR-8 it was > 100 µM (inactive); in the assay with RPMI-8226 it was 6.1 µM (inactive); with SK-OV-3, > 100 µM (inactive). Moreover, the GI50 in the assay on SW-620 was > 100 µM (inactive); in the assay on UACC-62, > 100 µM (inactive); with UO-31, 8.85 µM (inactive).
